Laboratory results published in PMC7504817, “Phenylalanine Stereoisomers of CJ-15,208 and [D-Trp]CJ-15,208 Exhibit Distinctly Different Opioid Activity Profiles” (Molecules, 2020).
Entries after “also recorded” stand apart in the source; their conditions may differ. Like-named read-outs stand apart in the source and are kept apart here.

Assays:
C57BL/6J mice [1] = experiment: Conditioned place preference / aversion assay; details: 10 mg/kg, i.p., two-day place conditioning
C57BL/6J mice [2] = experiment: Respiration and ambulation, CLAMS/Oxymax system; details: 10 mg/kg, i.p.; 60 min
C57BL/6J mice [3] = experiment: Acute antinociceptive tolerance (tail-withdrawal assay, dosing at 0 and 8 h); details: i.c.v.; for Fold-Shift, Naïve ED50 vs. Second ED50: 0 h vs 8 h; for acute antinociceptive tolerance: ED50 at 8 h vs 0 h; for Naïve ED50 (95% C.I.): naïve C57BL/6J mice, tail-withdrawal assay; for ED50 (95% C.I.) Pretreated Mice: 8 h after pretreatment with ED50 dose of the same compound, * significantly different from naïve
rat MOR = biological target: T1, rat MOR (Rattus norvegicus, UniProt P33535); experiment: Radioligand equilibrium competition binding, MOR; details: [3H]DAMGO; membranes from CHO cells expressing rat MOR; mean ± SEM, at least three experiments
T1 construct: expressed in transfected cells

[4] = Metabolic stability in mouse liver microsomes; assay type: in vitro ADME; details: pH 7.4, 5 µM peptide, 0.25 mg/mL protein, with NADPH, 37 °C, read-out: t1/2 in mouse liver microsomes
Procedure: The macrocyclic tetrapeptide (5 µM) in 1% acetonitrile was incubated with mouse liver microsomes (0.25 mg/mL protein, Xenotech, Lenexa, KS, USA) at 37 °C in the presence or absence of co-factor NADPH RapidStart System (1 mM, Xenotech) or NADPH solution (Sigma, St. Louis, MO, USA) in potassium phosphate buffer (50 mM, pH 7.4). Aliquots (100 µL) taken at 0, 5, 15, 30, 60 and 120 min were quenched with ice-cold acetonitrile (1 vol) containing internal standard ([D-NMeAla^2]CJ-15,208 [26], 5 µM) to precipitate the proteins. The lack of endogenous interference with the analysis of the stereoisomer or internal standard was confirmed by analyzing samples lacking the macrocyclic tetrapeptide.
Following centrifugation at 10,000× g rpm for 10 min, the supernatant (50 µL) was diluted with water (75 µL), stored overnight at −20 °C and analyzed by LC-MS/MS using methodology similar to that described for [D-Trp]CJ-15,208 [32]. Liquid chromatography was performed on a Hypersil BDS C8 column (50 mm × 2.1 mm, 3 µm) with a flow rate of 0.2 mL/min and an injection volume of 20 µL using an Acquity UPLC system (Waters, Milford, MA, USA). The peptides were separated using a gradient of aqueous acetonitrile containing 0.08% formic acid of 20% B (0–2 min), 20–50% B (2–3 min), 50–80% B (3–6 min), 80% B (6–7 min), 80–20% B (7–8 min) and 20% B (8–10 min).
ESI-MS/MS was performed on a Waters Quatro triple quadrupole instrument operating in the positive ion multiple reaction monitoring mode. Data acquisition was carried out with Mass Lynx 4.1 software with the following settings: capillary voltage, 2500 V; cone voltage, 30 V; source temperature, 100 °C; desolvation temperature, 250 °C; cone gas flow, 279 L/h; desolvation gas flow, 1157 L/h; LM 1 resolution, 14; HM 1 resolution, 14; ion energy 1, 1.0; MS/MS mode entrance, -1; MS/MS collision energy, 35 eV; MS/MS mode exit, 2; LM 2 resolution, 13.0; HM 2 resolution, 13.0; ion energy 2, 1.5; multiplier, 650; collision cell pressure, 1.63 × 10^−3 mbar; collision gas, argon. The transition m/z 578.2 ([M + H]^+) → 217.2 was monitored to determine the peak area counts of the stereoisomers, and m/z 566.2 ([M + H]^+) → 232.9 was monitored to determine the peak area counts of the internal standard (collision energy 22 eV) with the following settings: dwell time, 0.3 s; delay, 0.05 s.

C57BL/6J mice [5] = experiment: 55 °C warm-water tail-withdrawal assay (antinociception); assay type: in vivo, mouse; details: for duration of significant antinociception: i.c.v. administration; for ED50 (and 95% C.I.) i.c.v. / ED50 (and 95% C.I.) p.o.: C57BL/6J mice, antinociception at peak response; for antinociceptive efficacy / ED50 (and 95% C.I.) p.o.: p.o.
Procedure: For intracerebroventricular (i.c.v.) administration the macrocyclic tetrapeptides were dissolved in dimethyl sulfoxide (DMSO), followed by addition of sterile saline (0.9%) so that the final vehicle was 50% DMSO and 50% saline, and the i.c.v. injections performed as described previously. This concentration of DMSO was not observed to have antinociceptive or behavioral effects in previous use. For per os (p.o.) administration the macrocyclic tetrapeptides were administered in 10% Solutol in 0.9% saline. All solutions for animal administration were prepared fresh daily.
The 55 °C warm-water tail-withdrawal assay was performed in mice as previously described, with the latency of the mouse to withdraw its tail from the water taken as the endpoint (a cut-off time of 15 sec was used in this assay). Antinociception was calculated according to the following formula: % antinociception = 100 × (test latency − control latency)/(15 − control latency). Tail-withdrawal data points are the means of 8–16 mice, unless otherwise indicated, with SEM shown by error bars.
All dose-response lines were analyzed by regression, and ED50 (effective dose producing 50% antinociception) values and 95% confidence intervals (C.I.) determined using individual data points from graded dose-response curves with Prism 8.0 software (GraphPad, La Jolla, CA, USA). Percent antinociception was used to determine within group effects and to allow comparison to baseline latency in tail-withdrawal experiments. The statistical significance of differences between ED50 values was determined by evaluation of the ED50 value shift via nonlinear regression modeling with Prism software. Significant differences in behavioral data were analyzed by ANOVA (one-way or two-way with repeated measures (RM), as appropriate). Significant results were further analyzed with Sidak’s, Tukey’s, or Dunnett’s multiple comparison post hoc tests, as appropriate. Data for conditioned place preference experiments were analyzed by two-way RM ANOVA, with analyses examining the main effect of conditioned place preference phase (e.g., pre- or post-conditioning) and the interaction of drug pretreatment. Significant effects were further analyzed using Sidak’s HSD post hoc testing. All data are presented as mean ± SEM, with significance set at p < 0.05.

C57BL/6J mice [6] = experiment: Opioid receptor involvement in antinociception (antagonist pretreatment, tail-withdrawal assay); assay type: in vivo, mouse; details: i.c.v. (1, 3, 4, 5 at 10 nmol, 2 at 100 nmol); pretreatment with β-FNA, nor-BNI or naltrindole
DOR = biological target: T2, DOR (Mus musculus, UniProt P32300); experiment: Antagonist activity against DOR-selective agonist SNC-80 (tail-withdrawal assay); assay type: in vivo; details: stereoisomer 100 nmol i.c.v. pretreatment; SNC-80 100 nmol i.c.v.
T2 construct: from tissue; host or cells: whole animal, C57BL/6J mice

rat KOR [7] = biological target: T3, rat KOR (Rattus norvegicus, UniProt P34975); details: ratio Ki(MOR)/Ki(KOR)
C57BL/6J mice [8] = details: mouse, in vivo
C57BL/6J mice [9] = details: mouse, in vivo; remark: listed apart in the source
C57BL/6J mice [10] = details: mouse, in vivo; remark: listed apart in the source
rat KOR [11] = biological target: T3, rat KOR; experiment: biochemical
KOR = biological target: T4, KOR (Mus musculus, UniProt P33534); experiment: Antagonist activity against KOR-selective agonist U50,488 (tail-withdrawal assay); assay type: in vivo; details: stereoisomer 30 nmol i.c.v. pretreatment; U50,488 10 mg/kg i.p.
T4 construct: from tissue; host or cells: whole animal, C57BL/6J mice

mouse DOR = details: radioligand binding; ref [19]; cited from earlier work
[12] = design: method as in Khaliq et al., manuscript in preparation; details: ref Khaliq et al., manuscript in preparation; cited from earlier work
C57BL/6J mice [13] = details: mice, ref [19], [20], cited from earlier work
C57BL/6J mice [14] = details: ref [19], [20]; cited from earlier work

T3 sequence (P34975 whole entry): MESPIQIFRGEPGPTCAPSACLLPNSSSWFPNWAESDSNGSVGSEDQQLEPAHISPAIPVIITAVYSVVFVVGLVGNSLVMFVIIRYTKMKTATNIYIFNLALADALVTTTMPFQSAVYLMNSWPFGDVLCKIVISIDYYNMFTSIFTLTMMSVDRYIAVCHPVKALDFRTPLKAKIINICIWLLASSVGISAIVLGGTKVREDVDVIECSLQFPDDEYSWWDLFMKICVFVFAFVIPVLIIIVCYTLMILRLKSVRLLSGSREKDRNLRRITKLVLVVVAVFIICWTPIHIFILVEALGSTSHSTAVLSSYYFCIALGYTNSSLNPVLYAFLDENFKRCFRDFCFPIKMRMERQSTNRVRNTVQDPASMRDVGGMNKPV
T1 sequence (P33535 whole entry): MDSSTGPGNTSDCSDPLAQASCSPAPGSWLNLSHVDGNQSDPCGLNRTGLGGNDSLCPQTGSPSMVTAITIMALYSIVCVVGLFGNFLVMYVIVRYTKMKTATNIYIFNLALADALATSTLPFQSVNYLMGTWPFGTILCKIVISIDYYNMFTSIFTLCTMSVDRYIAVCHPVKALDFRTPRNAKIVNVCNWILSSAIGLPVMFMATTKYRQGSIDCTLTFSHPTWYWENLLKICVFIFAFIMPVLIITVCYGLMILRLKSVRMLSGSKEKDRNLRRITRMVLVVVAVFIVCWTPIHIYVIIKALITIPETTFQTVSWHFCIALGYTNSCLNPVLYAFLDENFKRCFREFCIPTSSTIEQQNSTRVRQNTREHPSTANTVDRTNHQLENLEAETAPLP
T2 sequence (P32300 whole entry): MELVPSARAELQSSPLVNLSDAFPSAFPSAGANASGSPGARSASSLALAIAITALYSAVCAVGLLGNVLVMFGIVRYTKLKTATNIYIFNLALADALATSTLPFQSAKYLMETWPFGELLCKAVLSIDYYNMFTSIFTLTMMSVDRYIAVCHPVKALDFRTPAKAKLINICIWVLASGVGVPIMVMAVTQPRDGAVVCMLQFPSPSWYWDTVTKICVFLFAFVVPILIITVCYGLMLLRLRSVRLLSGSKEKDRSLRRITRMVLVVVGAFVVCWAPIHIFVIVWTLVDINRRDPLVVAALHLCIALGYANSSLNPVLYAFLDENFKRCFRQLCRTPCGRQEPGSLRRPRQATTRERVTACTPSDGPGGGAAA
T4 sequence (P33534 whole entry): as the sequence (P34975 whole entry) above, with E11D, A17S, P51S, V308A counted along it

Compound | Fold-Shift, Naïve ED50 vs. Second ED50 (C57BL/6J mice [3]) [fold] | acute antinociceptive tolerance (C57BL/6J mice [3]) | Naïve ED50 (95% C.I.) (C57BL/6J mice [3]) | Ki (rat MOR) [nM] | half-life at 5 µM [4] [min] | time of peak antinociception (C57BL/6J mice [5]; after i.c.v. administration) [min] | duration of significant antinociception (C57BL/6J mice [5]) | ED50 (and 95% C.I.) i.c.v. (C57BL/6J mice [5]) | antinociceptive efficacy (C57BL/6J mice [5]) | time of peak antinociception (C57BL/6J mice [5]; p.o. administration) [min] | ED50 (and 95% C.I.) p.o. (C57BL/6J mice [5]) | Receptors Involved (in antinociception) (C57BL/6J mice [6]) | Selectivity Ki (MOR) Ki (KOR) (rat KOR [7]) | effect on coordinated locomotor performance (rotarod) vs vehicle (C57BL/6J mice [8]) | Ki (rat KOR [11]) [nM] | ED50 (95% C.I.) Pretreated Mice (C57BL/6J mice [3]) | also measured
CN1CC[C@]23c4c5ccc(O)c4O[C@H]2[C@@H](O)C=C[C@H]3[C@H]1C5 [Morphine, morphine, reference compound] | 7.63 | demonstrated acute antinociceptive tolerance | 2.91 (2.48–3.41) nmol |  |  |  |  |  |  |  |  |  |  |  |  |  | conditioned place preference or aversion (C57BL/6J mice [1]): significant place-preference for the morphine-paired chamber; effect on ambulation vs vehicle (C57BL/6J mice [2]): robust, significant increases in ambulation; effect on respiration rate vs vehicle (C57BL/6J mice [2]): significant, time-dependent respiratory depression
O=C1N[C@H](Cc2ccccc2)C(=O)N[C@H](Cc2c[nH]c3ccccc23)C(=O)N[C@@H](Cc2ccccc2)C(=O)N2CCC[C@H]12 (single isomer, unassigned) [Stereoisomer 5, cyclo[Phe-D-Pro-D-Phe-D-Trp]] | 1.09 | Neither stereoisomer 4 or 5 demonstrated any significant changes in the ED50 values | 0.45 (0.28–0.70) nmol | 5800 ± 1450 | 15 | 30 | 90 min | 0.56 (0.38–0.91) nmol | full antinociception | 20 to 30 | 4.72 (3.70–6.39) mg/kg | all three opioid receptors contributed to the antinociception; also recorded: KOR, MOR, DOR | 16 | lacked any significant effect | 353 ± 19 | 0.49 (0.09–1.36) nmol | antagonism of SNC-80 antinociception (DOR antagonist activity) (DOR): significantly antagonized SNC-80; effect on respiration rate vs vehicle (C57BL/6J mice [9]): significant decreases in respiration rates; conditioned place preference or aversion (C57BL/6J mice [10]): no significant preference or aversion
O=C1N[C@H](Cc2ccccc2)C(=O)N2CCC[C@@H]2C(=O)N[C@@H](Cc2ccccc2)C(=O)N[C@H]1Cc1c[nH]c2ccccc12 (single isomer, unassigned) [Stereoisomer 1, cyclo[D-Phe-D-Pro-Phe-Trp]] | 31.2 | greater acute antinociceptive tolerance than CJ-15,208 | 0.65 (0.31–1.31) nmol | > 10000 | 54 | 20 | intermediate duration | 0.75 (0.36–1.44) nmol | full antinociception | 20 to 30 | 7.62 (5.12–12.2) mg/kg | all three opioid receptors contributed to the antinociception; also recorded: KOR, MOR, DOR |  | limited impairment of performance | 5120 ± 690 |  | antagonism of U50,488 antinociception (KOR antagonist activity) (KOR): significant antagonism of U50,488
O=C1N[C@@H](Cc2ccccc2)C(=O)N2CCC[C@@H]2C(=O)N[C@@H](Cc2ccccc2)C(=O)N[C@H]1Cc1c[nH]c2ccccc12 [CJ-15,208, cyclo[Phe-D-Pro-Phe-Trp]] | 2.87 |  | 1.82 (1.22–2.74) nmol | 451 ± 114 |  |  |  |  |  |  |  |  | 16.5 |  | 27.4 ± 4.6 | 5.23 (4.23–6.48) nmol | affinity for DOR (mouse DOR): negligible affinity for DOR; half-life in mouse liver microsomes [12]: 49 min; ED50 (and 95% C.I.) i.c.v. (C57BL/6J mice [13]; i.c.v.): 1.74 (0.62–4.82) nmol; ED50 (and 95% C.I.) p.o. (C57BL/6J mice [13]; p.o.): 3.49 (1.98–5.73) mg/kg; Receptors Involved (in antinociception) (C57BL/6J mice [14]): KOR, MOR
